Assays:
[1] = tested on: muscles (soleus muscle) of Tg23 mice; assay: Experimental Example 3: glucose (2-deoxy-D-glucose) intake of soleus muscles; assay type: in vivo, mouse; conditions: Tg mice, Tx-E group vs Ct group, 20-40 weeks after the administration
Description: Mice were sacrificed, and extensor digitorum longus (EDL) muscles and soleus muscles were quickly removed and processed. Both ends of each of the muscles were tied with suture (silk 4-0), and mounted on an incubation apparatus. First, the muscles were preincubated for 20 minutes in 6 ml of Krebs-Ringer bicarbonate (KRB) buffer (117 mM NaCl, 4.7 mM KCl, 2.5 mM CaCl2, 1.2 mM KH2PO4, 1.2 mM MgSO4, 24.6 mM NaHCO3, pH 7.5) containing 2 mM pyruvate. Then, the muscles were incubated in KRB buffer in presence or absence of insulin.
Immediately after muscle incubation, the muscles were transferred to KRB buffer containing 1 mM 2-deoxy-D-[^3H]glucose (1.5 μCi/ml) and 7 mM D-[^14C]mannitol (0.3 μCi/ml) (PerkinElmer Life Sciences) at 30° C., and incubated again for 10 minutes. When using insulin, a buffer containing insulin was used for incubation in a similar manner.
Glucose transport was terminated by dipping the muscles in KRB buffer containing 80 μmol/L cytochalasin B at 4° C., and then the muscles were frozen in liquid nitrogen. The muscles were weighed, and digested by incubating in 250 μl of 1 M NaOH at 80° C. for 10 minutes. Digests were neutralized with 250 μl of 1 M HCl. […] Radioactivity in aliquots of the digested muscle was determined by liquid scintillation counting for dual labels, and extracellular and intracellular spaces were calculated. […]

[2] = tested on: AKT and Glut4; assay: Experimental Example 3: intramuscular expression of AKT and Glut4 (western blot, immunostaining); assay type: in vivo, mouse
Description: Primary antibodies: Anti-insulin antibody (dilution rate 1:500; DAKO), anti-glucagon antibody (dilution rate 1:500; Linco Research Inc.), anti-DBA antibody (dilution rate 1:300; Vector Laboratories), anti-Pdx-1 antibody (dilution rate 1:1000; kindly provided by Chris V. E. Wright, Vanderbilt University), anti-collagen type IV antibody (dilution rate 1:250; PROGEN Biotechnik), and anti-Glut 4 antibody (dilution rate 1:1000; Chemicon).
The primary antibodies were detected by immunofluorescence labeling using secondary antibodies conjugated with Alexa 488 or Alexa 568 (1:200; Molecular Probes); third antibody conjugated with biotin-labeled secondary antibodies and streptavidin Alexa 488 or Alexa 568 (1:800; Vector Laboratories); or by an immunoperoxidase staining method using biotin-labeled secondary antibodies. Staining was visualized with diaminobenzidine. The sections were counterstained with hematoxylin. Images were captured on a BZ9000 microscope (Keyence), or in the confocal mode on an LSM 510 META confocal microscope (Carl Zeiss). Immunofluorescence intensity was measured in random fields (n=30/section) using LSM Zeiss software, and the result was expressed as average pixel intensity.
Mice were sacrificed, and the EDL, tibialis anterior, and gastrocnemius muscles were removed and snap-frozen in liquid nitrogen. […]
Protein levels were quantified using NIH Image. […]

Compound: C[C@]12CC[C@@H]3c4ccc(O)cc4CC[C@H]3[C@@H]1CC[C@@H]2O [estradiol, 17β-estradiol]
- amount of glucose intake of muscles [1]: significantly increases
- glucose transporter (Glut4) in muscle cells ([2]; Tg mice in Tx-E group): increased
- expression of intramuscular AKT and Glut4 ([2]; Tg mice, Tx + 17β-estradiol pellet s.c.): upregulates

Source: patent US20120172344A1, “INSULIN-PRODUCING CELL INDUCER, GLUCOSE INTAKE ENHANCER, AND THERAPEUTIC AGENT FOR DIABETES OR DIABETES COMPLICATIONS” (KYUSHU UNIVERSITY, NATIONAL UNIVERSITY CORPORATION, priority 2009, published 2012)
